Assay results: paper PMC11823609, “Advancements in the fight against globally distributed OXA-48 carbapenemase: evaluating the new generation of carbapenemase inhibitors” (Antimicrobial Agents and Chemotherapy, 2025)
Values after ≈ are worked out from the molar mass of the structure shown.

Key:
[1] = system: E. coli TG1 and HB4 transformants; assay: MIC summary over E. coli transformants; type: cell-based, Escherichia coli
Description: (§1) The E. coli HB4 strain was used to gain a more complete perspective, by evaluating the involvement in resistance of a low permeability background with the carbapenemase OXA-48, as well as coproduction of an ESBL and the carbapenemase; thus, the ESBL CTX-M-14 and OXA-48 were cloned together and separately into E. coli HB4. The characteristics of these strains and transformants are summarized in Table S1, and the cloning procedures are outlined in the supplemental methods.
(§2) The MICs of each of the individual compounds (antibiotics or inhibitors) were also determined. The MICs were determined for the E. coli isogenic expressing OXA-48 (and both OXA-48 and CTX-M-14) to assess their activity against the carbapenemase; MICs were also determined for the 18 Enterobacterales clinical isolates in order to evaluate the new inhibitors against also their resistance concomitant mechanisms. The MICs were determined in triplicate experiments, and the EUCAST 13.0 clinical breakpoints were followed (http://www.eucast.org/clinical_breakpoints).
(§3) For comparative evaluation of the activity of each inhibitor alone against the carbapenemase OXA-48, all inhibitors (at 4 mg/L) were tested in the presence of a carbapenem (ertapenem, adequate substrate) and a cephalosporin (ceftazidime, poor substrate) as reporter substrates. This prevented any possible masking effect produced by the different partner antibiotics. These assays were also performed with isogenic transformants and clinical isolates.

[2] = system: E. cloacae strain 281 (MLST 78, No ESBL); assay: microbe, parasite or virus in culture; type: cell-based; details: Enterobacter cloacae; E. cloacae 281; β-lactamase inhibitor alone; read-out: MIC
Experimental: (§4) The efficacy of these new BLIs was also evaluated against 18 genetically diverse WGS-characterized collection of OXA-48-positive Enterobacterales recovered as part of the Carbapenem-resistant Enterobacterales Genome Database Project (https://genomes.cnag.cat/incredble) listed in Table S2 ([13]). Combinations of clinical isolates (five pairs of Klebsiella pneumoniae, two pairs of Enterobacter cloacae, and two pairs of E. coli) were chosen for analysis: (i) nine strains carrying ESBLs; and (ii) nine strains (genetically closer available strains) without ESBLs.
as §2, §3

[3] = system: K. pneumoniae strain 71 (MLST 15, No ESBL); assay: microbe, parasite or virus in culture; type: cell-based; details: Klebsiella pneumoniae; K. pneumoniae 71; β-lactamase inhibitor alone; read-out: MIC
Experimental: as §4, §2, §3

[4] = system: K. pneumoniae strain 125 (MLST 307, ESBL); assay: microbe, parasite or virus in culture; type: cell-based; details: Klebsiella pneumoniae
Experimental: as §4, §2, §3

[5] = system: K. pneumoniae strain 238 (MLST 15, ESBL); assay: microbe, parasite or virus in culture; type: cell-based; details: Klebsiella pneumoniae
Experimental: as §4, §2, §3

[6] = system: K. pneumoniae strain 19 (MLST 11, ESBL); assay: microbe, parasite or virus in culture; type: cell-based; details: Klebsiella pneumoniae
Experimental: as §4, §2, §3

[7] = system: E. coli strain 177 (MLST 131, ESBL); assay: microbe, parasite or virus in culture; type: cell-based; details: Escherichia coli
Experimental: as §4, §2, §3

[8] = system: K. pneumoniae strain 170 (MLST 307, No ESBL); assay: microbe, parasite or virus in culture; type: cell-based; details: Klebsiella pneumoniae; K. pneumoniae 170; β-lactamase inhibitor alone; read-out: MIC
Experimental: as §4, §2, §3

[9] = system: K. pneumoniae strain 194 (MLST 392, No ESBL); assay: microbe, parasite or virus in culture; type: cell-based; details: Klebsiella pneumoniae; K. pneumoniae 194; β-lactamase inhibitor alone; read-out: MIC
Experimental: as §4, §2, §3

[10] = system: E. cloacae strain 231 (MLST 171, No ESBL); assay: microbe, parasite or virus in culture; type: cell-based; details: Enterobacter cloacae; E. cloacae 231; β-lactamase inhibitor alone; read-out: MIC
Experimental: as §4, §2, §3

[11] = system: K. pneumoniae strain 237 (MLST 147, No ESBL); assay: microbe, parasite or virus in culture; type: cell-based; details: Klebsiella pneumoniae; K. pneumoniae 237; β-lactamase inhibitor alone; read-out: MIC
Experimental: as §4, §2, §3

[12] = system: E. cloacae strain 272 (MLST 78, ESBL); assay: microbe, parasite or virus in culture; type: cell-based; details: Enterobacter cloacae
Experimental: as §4, §2, §3

[13] = system: K. pneumoniae strain 497 (MLST 11, No ESBL); assay: microbe, parasite or virus in culture; type: cell-based; details: Klebsiella pneumoniae; K. pneumoniae 497; β-lactamase inhibitor alone; read-out: MIC
Experimental: as §4, §2, §3

[14] = system: E. coli strain 264 (MLST 131, No ESBL); assay: microbe, parasite or virus in culture; type: cell-based; details: Escherichia coli; E. coli 264; β-lactamase inhibitor alone; read-out: MIC
Experimental: as §4, §2, §3

[15] = system: K. pneumoniae strain 23 (MLST 392, ESBL); assay: microbe, parasite or virus in culture; type: cell-based; details: Klebsiella pneumoniae
Experimental: as §4, §2, §3

[16] = system: E. coli strain 103 (MLST 10, ESBL); assay: microbe, parasite or virus in culture; type: cell-based; details: Escherichia coli
Experimental: as §4, §2, §3

[17] = system: K. pneumoniae strain 413 (MLST 147, ESBL); assay: microbe, parasite or virus in culture; type: cell-based; details: Klebsiella pneumoniae
Experimental: as §4, §2, §3

[18] = system: E. coli strain 224 (MLST 127, No ESBL); assay: microbe, parasite or virus in culture; type: cell-based; details: Escherichia coli; E. coli 224; β-lactamase inhibitor alone; read-out: MIC
Experimental: as §4, §2, §3

[19] = system: E. cloacae strain 235 (MLST 171, ESBL); assay: microbe, parasite or virus in culture; type: cell-based; details: Enterobacter cloacae
Experimental: as §4, §2, §3

OXA-48 = OXA-48 (Klebsiella pneumoniae, UniProt Q6XEC0); details: ref 26 Lahiri et al.; cited from earlier work
E. coli TG1 (OXA-48) = assay: microbe, parasite or virus in culture; type: cell-based, Escherichia coli; details: Escherichia coli
Experimental: as §2, §3

E. coli TG1 = assay: microbe, parasite or virus in culture; type: cell-based; details: Escherichia coli, β-lactamase inhibitor alone
Experimental: as §2, §3

[20] = system: E. coli HB4 ΔompC/F (CTX-M-14); assay: microbe, parasite or virus in culture; type: cell-based, Escherichia coli; details: Escherichia coli
Description: as §1, §2, §3

[21] = system: E. coli HB4 ΔompC/F (OXA-48); assay: microbe, parasite or virus in culture; type: cell-based, Escherichia coli; details: Escherichia coli
Description: as §1, §2, §3

[22] = system: E. coli HB4 ΔompC/F (CTX-M-14 + OXA-48); assay: microbe, parasite or virus in culture; type: cell-based, Escherichia coli; details: for MIC: Escherichia coli
Description: as §1, §2, §3

E. coli HB4 ΔompC/F = assay: microbe, parasite or virus in culture; type: cell-based, Escherichia coli; details: Escherichia coli
Description: as §1, §2, §3

[23] = system: OXA-48-producing Enterobacterales clinical isolates; assay: MIC summary over clinical isolates; type: cell-based; details: clinical isolates
Experimental: as §4, §2, §3

[24] = system: O=C(Cc1cccs1)N[C@@H]1C(=O)N2C(C(=O)O)=C(/C=C/c3ccc([N+](=O)[O-])cc3[N+](=O)[O-])CS[C@H]12; assay: purified protein, by the assay type; details: other: substrate hydrolysis by OXA-48; pH 7.4; 25.0 °C
[25] = OXA-48-producing E. coli hosts, BLI 4 mg/L

Chain of OXA-48 (Q6XEC0 23-265 limits assumed): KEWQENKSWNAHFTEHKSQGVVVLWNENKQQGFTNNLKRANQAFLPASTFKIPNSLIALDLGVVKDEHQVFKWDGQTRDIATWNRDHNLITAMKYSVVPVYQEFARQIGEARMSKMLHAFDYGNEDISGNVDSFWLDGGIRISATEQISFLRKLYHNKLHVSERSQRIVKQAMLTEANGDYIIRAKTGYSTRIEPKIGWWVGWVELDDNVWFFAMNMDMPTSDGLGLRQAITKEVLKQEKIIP

In the case of NC(=O)[C@@H]1CC[C@@H]2CN1C(=O)N2OS(=O)(=O)O [Avibactam, avibactam], the “decrease of ertapenem MIC with BLI” value [1, 25] is reported as 8–256 fold, the MIC [2] is reported as 16 µg/mL and the MIC [3] is reported as 32 µg/mL. The MIC [4] was 32 µg/mL, the MIC [5] was 32 µg/mL and the MIC [6] was ≥ 128 µg/mL. For the same compound, the MIC [7] was 32 µg/mL, the MIC [8] was 16 µg/mL and the MIC [9] was 16 µg/mL. The MIC [10] was 8 µg/mL, the MIC [11] was 64 µg/mL and the MIC [12] was 32 µg/mL. The MIC [13] was ≥ 128 µg/mL, the MIC [14] was 16 µg/mL and the MIC [15] was 16 µg/mL. For the same compound, the MIC [16] was 32 µg/mL, the MIC [17] was 64 µg/mL and the MIC [18] was 16 µg/mL. The MIC [19] was 32 µg/mL, the t1/2 (OXA-48) was 1,000 min and the MIC (E. coli TG1 (OXA-48)) was 4 µg/mL (≈ 15.1 µM). It also gave an MIC (E. coli TG1) of 4 µg/mL (≈ 15.1 µM), an MIC [20] of 16 µg/mL (≈ 60.3 µM) and an MIC [21] of 8 µg/mL (≈ 30.2 µM). For the same compound, the “decrease of ertapenem MIC with BLI” value ([22]; E. coli HB4 coproducing CTX-M-14 and OXA-48, BLI 4 mg/L) was 256 fold, the MIC [22] was 16 µg/mL (≈ 60.3 µM) and the MIC (E. coli HB4 ΔompC/F) was 8 µg/mL (≈ 30.2 µM).

For O=C(NNC(=O)[C@@H]1CC[C@@H]2CN1C(=O)N2OS(=O)(=O)O)[C@@H]1CCCNC1 [Zidebactam, zidebactam], the “effect of ertapenem/BLI on bacterial growth” value [1, 25] was “totally inhibited bacterial growth”, the “MICs of inhibitor alone (range over strains)” value ([1]; TG1 and HB4 E. coli) was 0.12 to 2 mg/L and the “reduction of cefepime MICs by BLI” value [23] was 2–512 fold. The MIC [2] was 0.25 µg/mL, the MIC [3] was 0.5 µg/mL and the MIC [4] was ≥ 128 µg/mL. For the same compound, the MIC [5] was 0.25 µg/mL, the MIC [6] was ≥ 128 µg/mL and the MIC [7] was 0.5 µg/mL. It also gave an MIC [8] of 0.5 µg/mL, an MIC [9] of 0.5 µg/mL and an MIC [10] of 0.25 µg/mL. The MIC [11] was 0.5 µg/mL, the MIC [12] was 0.5 µg/mL and the MIC [13] was 32 µg/mL. The MIC [14] was 0.12 µg/mL, the MIC [15] was 0.5 µg/mL and the MIC [16] was 8 µg/mL. The MIC [17] was ≥ 128 µg/mL, the MIC [18] was 0.25 µg/mL and the MIC [19] was 2 µg/mL. For the same compound, the MIC (E. coli TG1 (OXA-48)) was 0.12 µg/mL (≈ 0.307 µM), the MIC (E. coli TG1) was 0.12 µg/mL (≈ 0.307 µM) and the MIC [20] was 0.5 µg/mL (≈ 1.28 µM). It also gave an MIC [21] of 0.5 µg/mL (≈ 1.28 µM), an MIC [22] of 0.5 µg/mL (≈ 1.28 µM) and an MIC (E. coli HB4 ΔompC/F) of 0.5 µg/mL (≈ 1.28 µM).

In the case of OXA-48 (Klebsiella pneumoniae), the Km [24] is reported as 56.5 µM, the kcat [24] is reported as 171.4 s⁻¹ and the kcat/Km [24] is reported as 3.05 µM⁻¹ s⁻¹.
